Reference: ChEMBL document CHEMBL1201862, “PubChem BioAssay data set” (2004)
Calls of active or inactive are those of the source.

Experiments:
[1] = biological target: T1, Oxysterols receptor LXR-beta (Homo sapiens, UniProt P55055); assay type: functional, cell-based;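 also: agonist activity at LXR measured by a cell-based luminescence readout across a dose range, run as a counterscreen for daf-12 agonists; HEK293 cells with Gal4-LXR fusion and GAL4-driven luciferase reporter; potency for activation of Gal4-LXR reporter so compounds are agonists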
T1 sequence (P55055 whole entry): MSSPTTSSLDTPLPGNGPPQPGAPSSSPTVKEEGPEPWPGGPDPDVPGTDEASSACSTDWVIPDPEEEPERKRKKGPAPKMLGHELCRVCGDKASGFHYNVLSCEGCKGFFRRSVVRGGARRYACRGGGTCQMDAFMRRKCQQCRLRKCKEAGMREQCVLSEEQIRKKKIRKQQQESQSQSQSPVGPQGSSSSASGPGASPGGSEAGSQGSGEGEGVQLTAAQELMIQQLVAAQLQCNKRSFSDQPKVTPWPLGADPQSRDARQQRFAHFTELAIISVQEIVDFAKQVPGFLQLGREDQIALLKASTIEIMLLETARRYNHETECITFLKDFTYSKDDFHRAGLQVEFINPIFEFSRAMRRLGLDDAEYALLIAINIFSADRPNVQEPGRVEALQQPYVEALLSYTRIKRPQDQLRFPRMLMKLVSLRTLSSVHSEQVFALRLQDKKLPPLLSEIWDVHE

[2] = cytotoxicity in OVCAR8 ovarian cancer cells, dose response, PAX8 project, cell-based, plate reader, dry powder samples (AID 743197); assay type: functional; conditions: OVCAR-8
[3] = non-specific cell cytotoxicity, dose response, cytotoxicity control for PAX8 inhibitor project, plate reader, dry powder samples (AID 743021); assay type: functional, cell-based
[4] = NIH:OVCAR-3 ovarian cancer cell cytotoxicity, dose response, PAX8 inhibitor project, plate reader, dry powder samples (AID 743044); assay type: functional, cell-based
[5] = IOSE-T80 ovarian epithelial cell cytotoxicity, dose response, cytotoxicity control for PAX8 inhibitor project, plate reader, dry powder samples (AID 743045); assay type: functional, cell-based
Paired box protein Pax-8 = Paired box protein Pax-8 (Homo sapiens, UniProt Q06710); assay: inhibitors of PAX8-driven TPO luciferase reporter, dose response, RMG-I cells, cherry-pick (AID 687027); assay type: functional, cell-based;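 also: luciferase reporter driven by Pax8 target thyroperoxidase promoter measured by SteadyGlo luminescence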
[6] = IGROV1 ovarian cancer cell cytotoxicity, dose response, PAX8 inhibitor project, plate reader, dry powder samples (AID 743043); assay type: functional, cell-based; conditions: IGROV-1
[7] = A2780 ovarian cancer cell cytotoxicity, dose response, cytotoxicity control, plate reader, dry powder samples (AID 743046); assay type: functional, cell-based
[8] = T. cruzi growth inhibition in host cells, dose response, cell-based, plate reader, dry powder, set 2 (AID 652275); assay type: functional
[9] = inhibitors of PGC1a acetylation in cells, dose response, cell-based, cherry-picked samples (AID 720514); assay type: functional;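 also: potency may reflect raised or lowered acetylation signal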
[10] = biological target: Potassium channel subfamily K member 3 (Homo sapiens, UniProt O14649); assay: TASK1 (KCNK3) potassium channel inhibitors, SAR follow-up, CHO cells, FluxOR thallium flux (AID 652212); assay type: functional
[11] = biological target: Potassium channel subfamily K member 9 (Homo sapiens, UniProt Q9NPC2); assay: TASK3 (KCNK9) channel inhibitors, thallium flux, SAR follow-up, selectivity assay for TASK1 inhibitor project, cell-based, FluxOR thallium flux, concentration-response (AID 652211); assay type: functional;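 also: potency is for inhibitors of the channel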
[12] = P. falciparum ATP4 D1247Y mutant growth inhibitors, dose response, NITD609-resistant line, SYBR Green, dry powder (AID 1159571); assay type: functional, cell-based;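 also: parasites synchronized at ring stage by sorbitol before testing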
[13] = HepG2 cell cytotoxicity, dose response, cytotoxicity control, cherry-picked samples (AID 1159577); assay type: functional, cell-based
[14] = HepG2 cell cytotoxicity, dose response, cytotoxicity control, plate reader, dry powder samples (AID 1159569); assay type: functional, cell-based;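 also: inhibitor potency with signal falling toward the positive control level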
[15] = P. falciparum 3D7-ScDHODH growth inhibitors, dose response, SYBR Green, dry powder samples (AID 1159570); assay type: functional, cell-based;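 also: parasite growth measured after 72 hours of compound exposure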
[16] = P. falciparum Dd2 growth inhibitors, dose response, SYBR Green, cherry-picked samples (AID 1159567); assay type: functional, cell-based
[17] = P. falciparum Dd2 growth inhibitors, dose response, SYBR Green, dry powder samples (AID 1159566); assay type: functional, cell-based;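 also: potency for growth inhibition with lower SYBR green DNA signal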
[18] = biological target: RNA-editing ligase 1, mitochondrial (Trypanosoma brucei brucei, UniProt P86926); assay: TbREL1 ligase inhibitors, dose response, biochemical, fluorescence, Trypanosoma brucei (AID 1117295); assay type: functional
[19] = HCT116 cell viability decrease, GSK3B pretreatment – CellTiter-Glo, IC50, dose response (AID 1117339); assay type: functional; conditions: HCT-116
P388/ADR = assay: cells; assay type: functional; conditions: Mus musculus
[20] = cytotoxicity toward Colo320 cells – cell-based, CellTiter-Glo luminescence, IC50, dose response (AID 1117334); assay type: functional; conditions: COLO 320
[21] = RKO cell viability reduction, dose response, CellTiter-Glo luminescence (AID 1117322); assay type: functional
[22] = SNU-C1 cell viability reduction, dose response, CellTiter-Glo luminescence (AID 1117323); assay type: functional, cell-based
[23] = cytotoxicity toward HT-29 cells – cell-based, CellTiter-Glo luminescence, IC50, dose response (AID 1117330); assay type: functional
[24] = cytotoxicity toward HCT116 cells – cell-based, CellTiter-Glo luminescence, IC50, dose response (AID 1117332); assay type: functional; conditions: HCT-116
[25] = HeLa 2N DNA content increase, dose response, cell-based, IC50 (AID 1117349); assay type: functional
P388 = assay: cells; assay type: functional; conditions: Mus musculus
SN12K1 = assay: cells; assay type: functional; conditions: Homo sapiens
[26] = HeLa 4N DNA content increase, dose response, cell-based, IC50 (AID 1117351); assay type: functional
[27] = CellTiter-Glo luminescent dose response of DLD-1 viability loss (AID 1117352); assay type: functional
[28] = Concentration-dependent survival of SW480 colon cancer line, luminescence detection with CellTiter-Glo, half-maximal inhibitory concentration (AID 1117338); assay type: functional

Sequence of Potassium channel subfamily K member 3 (O14649 whole entry): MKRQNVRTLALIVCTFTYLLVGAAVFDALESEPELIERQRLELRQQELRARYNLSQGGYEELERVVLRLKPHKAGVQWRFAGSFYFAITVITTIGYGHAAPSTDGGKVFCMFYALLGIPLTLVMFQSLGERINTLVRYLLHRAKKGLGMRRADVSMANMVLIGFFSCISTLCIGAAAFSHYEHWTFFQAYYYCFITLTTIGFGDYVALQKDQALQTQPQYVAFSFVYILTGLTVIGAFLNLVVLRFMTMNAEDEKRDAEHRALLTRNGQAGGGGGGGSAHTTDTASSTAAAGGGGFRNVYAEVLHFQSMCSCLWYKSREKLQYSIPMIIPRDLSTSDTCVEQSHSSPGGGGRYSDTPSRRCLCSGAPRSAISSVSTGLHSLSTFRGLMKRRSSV
Sequence of Paired box protein Pax-8 (Q06710 whole entry): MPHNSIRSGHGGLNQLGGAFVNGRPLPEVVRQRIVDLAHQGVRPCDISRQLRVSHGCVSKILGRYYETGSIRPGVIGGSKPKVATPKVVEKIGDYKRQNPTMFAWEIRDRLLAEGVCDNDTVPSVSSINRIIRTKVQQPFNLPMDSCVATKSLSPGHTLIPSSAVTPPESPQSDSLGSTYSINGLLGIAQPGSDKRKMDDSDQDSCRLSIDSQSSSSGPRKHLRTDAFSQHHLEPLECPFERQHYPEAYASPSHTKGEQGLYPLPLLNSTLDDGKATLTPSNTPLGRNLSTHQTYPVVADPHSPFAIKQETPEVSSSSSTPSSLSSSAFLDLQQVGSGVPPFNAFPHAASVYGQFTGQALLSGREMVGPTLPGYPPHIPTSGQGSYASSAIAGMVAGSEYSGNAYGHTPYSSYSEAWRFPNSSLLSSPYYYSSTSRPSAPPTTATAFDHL
Sequence of RNA-editing ligase 1, mitochondrial (P86926 whole entry): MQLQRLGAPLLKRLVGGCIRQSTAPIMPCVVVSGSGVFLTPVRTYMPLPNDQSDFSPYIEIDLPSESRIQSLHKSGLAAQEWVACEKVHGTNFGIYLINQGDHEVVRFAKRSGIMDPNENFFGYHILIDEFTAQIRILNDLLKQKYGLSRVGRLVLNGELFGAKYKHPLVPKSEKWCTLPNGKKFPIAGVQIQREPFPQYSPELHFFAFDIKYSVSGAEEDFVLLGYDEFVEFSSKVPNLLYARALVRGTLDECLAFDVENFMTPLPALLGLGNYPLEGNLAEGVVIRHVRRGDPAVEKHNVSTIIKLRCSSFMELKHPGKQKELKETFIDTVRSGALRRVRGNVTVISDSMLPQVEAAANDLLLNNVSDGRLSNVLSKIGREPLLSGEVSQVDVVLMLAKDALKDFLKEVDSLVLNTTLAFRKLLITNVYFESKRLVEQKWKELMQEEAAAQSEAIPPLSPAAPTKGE
Sequence of Potassium channel subfamily K member 9 (Q9NPC2 whole entry): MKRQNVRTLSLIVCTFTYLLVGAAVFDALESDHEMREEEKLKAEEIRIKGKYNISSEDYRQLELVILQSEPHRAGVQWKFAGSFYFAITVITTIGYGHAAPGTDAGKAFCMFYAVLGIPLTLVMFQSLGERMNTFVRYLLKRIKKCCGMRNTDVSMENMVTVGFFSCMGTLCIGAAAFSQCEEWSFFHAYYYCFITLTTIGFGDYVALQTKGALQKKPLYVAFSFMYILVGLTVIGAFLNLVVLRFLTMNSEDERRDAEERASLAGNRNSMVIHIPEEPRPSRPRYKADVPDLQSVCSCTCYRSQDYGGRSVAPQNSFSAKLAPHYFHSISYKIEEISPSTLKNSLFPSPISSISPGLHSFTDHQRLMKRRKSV

With `OCCN1CCN(c2cnc(-c3ccsc3)cn2)CC1` the EC50 [1] was > 67500 nM (inactive).

With `CS(=O)(=O)Nc1ccc2c(c1)[C@@H]1C[C@@H](CC(=O)NCc3ccc(-c4ccccc4)cc3)O[C@@H](CO)[C@@H]1O2` the AC50 [2] was 16500 nM (active), the AC50 [3] was 65600 nM (active) and the AC50 [4] was 9080 nM (active). The AC50 [5] was 11700 nM (active), the AC50 (Paired box protein Pax-8) was 3200 nM (active) and the AC50 [6] was 17600 nM (active). The AC50 [7] was 17700 nM (active).

For `CC(=O)N1CCCCN2[C@@H](CO)[C@H](c3ccc(-c4cccc(C(=O)N(C)C)c4)cc3)[C@@H]2C1`, the AC50 [8] was 4940 nM (active).

In the case of `CC(C)CC#Cc1ccc2c(c1)O[C@H](CN(C)Cc1ccccc1)[C@@H](C)CN([C@H](C)CO)S2(=O)=O`, the AC50 [9] is reported as 16400 nM (active).

With `Cc1cccc(C(=O)Nc2cccc(NC(=O)c3cccc(C(F)(F)F)c3)c2)c1` the IC50 [10] was 9 nM (active) and the IC50 [11] was 3060 nM (active).

For `COc1ccc2c3c(n(C)c2c1)[C@H](CO)N(Cc1ccc(Cl)cc1)CC31CCN(CC2CC2)CC1`, the AC50 [12] was 2650 nM (active), the AC50 [13] was > 39000 nM (inactive) and the AC50 [14] was 19800 nM (active). For the same molecule, the AC50 [15] was 2850 nM (active), the AC50 [16] was 2330 nM (active) and the AC50 [17] was 2230 nM (active).

With `COc1cccc(CN2CCCCN3[C@H](CO)[C@@H](c4ccc(C#Cc5cccnc5)cc4)[C@H]3C2)c1` the AC50 [12] was 934 nM (active), the AC50 [13] was 24000 nM (active) and the AC50 [14] was 14000 nM (active). For the same molecule, the AC50 [15] was 2040 nM (active), the AC50 [16] was 859 nM (active) and the AC50 [17] was 560 nM (active).

With `COC(=O)C1=C(C)N(Cc2cccc(C(F)(F)F)c2)C(NCC2CC2)=NC1c1ccccc1C(F)(F)F` (centres undefined) the IC50 [18] was > 96600 nM (inactive).

With `Nc1nc2[nH]cnc2c(=S)[nH]1` [THIOGUANINE] the IC50 [19] was 163 nM (active), the GI50 (P388/ADR) was 181 nM (active) and the IC50 [20] was 373 nM (active). The AC50 [3] was 1990 nM (active), the IC50 [21] was 343 nM (active) and the IC50 [22] was 4400 nM (active). For the same molecule, the IC50 [23] was 49.3 nM (active), the IC50 [24] was 139 nM (active) and the IC50 [25] was > 10000 nM (inactive). The GI50 (P388) was 76.2 nM (active), the GI50 (SN12K1) was 281 nM (active) and the IC50 [26] was > 10000 nM (inactive). The IC50 [27] was 108 nM (active) and the IC50 [28] was 402 nM (active).
